Source: ChEMBL document CHEMBL1201862, “PubChem BioAssay data set” (2004)
The source made the active and inactive calls.

What was measured:
[1] = biological target: Serine/threonine-protein phosphatase PP1-alpha catalytic subunit (Homo sapiens, UniProt P62136); test: inhibition of protein phosphatase 1 activity – biochemical, fluorescence, dose response (AID 2403);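 further: phosphatase turnover of OMFP into fluorescent 3-O-methylfluorescein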
[2] = Trypanosoma cruzi growth suppression in host cells – NIH3T3 host cells, beta-gal luminescence, confirmation (AID 2044); format: functional, cell-based;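 further: intracellular parasites grown in NIH/3T3 mouse fibroblasts as host cells; luminescent beta-galactosidase reporter signal from transgenic T. cruzi replicating inside host cells; inhibitors lower the luminescence signal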
[3] = biological target: Serine/threonine-protein phosphatase (Homo sapiens, UniProt Q9BPW0); test: Counterscreen for inhibitors of PP1: fluorescence-based biochemical high throughput dose response assay to identify inhibitors of Protein Phosphatase 5 (PP5). [Related pubchem assays: 2034 (Summary (PP5 inhibitors)), 1987 (PP5 inhibitors in singlate), 2235 (PP1 inhibitors in singlate)]
[4] = NIH3T3 cell viability loss – ATP luminescence, mouse fibroblasts, counter-screen, dose response (AID 2010); format: functional, cell-based;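 further: cells exposed to compound for about 90 hours before reading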

Sequence of Serine/threonine-protein phosphatase (Q9BPW0 whole entry): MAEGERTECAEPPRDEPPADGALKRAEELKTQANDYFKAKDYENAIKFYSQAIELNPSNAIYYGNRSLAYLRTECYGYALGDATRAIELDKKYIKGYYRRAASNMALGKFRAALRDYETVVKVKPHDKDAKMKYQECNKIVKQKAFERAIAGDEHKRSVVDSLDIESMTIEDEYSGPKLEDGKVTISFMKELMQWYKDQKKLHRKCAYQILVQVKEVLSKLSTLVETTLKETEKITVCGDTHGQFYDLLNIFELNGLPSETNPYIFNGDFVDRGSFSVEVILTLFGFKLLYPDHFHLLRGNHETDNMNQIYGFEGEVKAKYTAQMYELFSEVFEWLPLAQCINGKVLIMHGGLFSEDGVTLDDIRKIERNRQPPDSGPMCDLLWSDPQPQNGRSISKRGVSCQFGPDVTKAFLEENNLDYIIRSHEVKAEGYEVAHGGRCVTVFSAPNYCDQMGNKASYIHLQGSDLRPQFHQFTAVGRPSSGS
Sequence of Serine/threonine-protein phosphatase PP1-alpha catalytic subunit (P62136 whole entry): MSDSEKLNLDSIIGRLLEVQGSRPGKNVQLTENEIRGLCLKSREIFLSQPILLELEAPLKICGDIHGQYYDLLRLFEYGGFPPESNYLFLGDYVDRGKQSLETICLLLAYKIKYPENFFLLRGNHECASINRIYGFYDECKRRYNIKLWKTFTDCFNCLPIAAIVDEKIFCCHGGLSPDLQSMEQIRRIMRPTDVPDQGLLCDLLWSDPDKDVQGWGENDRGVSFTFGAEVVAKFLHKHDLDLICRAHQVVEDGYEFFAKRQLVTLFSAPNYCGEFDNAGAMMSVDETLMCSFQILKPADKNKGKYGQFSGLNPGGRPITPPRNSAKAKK

Compound: COc1cnc(-c2ccccn2)nc1Sc1ccccc1
- IC50 [1]: 7.03 µM (active)
- EC50 [2]: 2.47 µM (active)
- IC50 [3]: > 67 µM (not active)
- EC50 [4]: > 60 µM (not active)
